Measurements: patent US11602518B2, “Lipidic furan, pyrrole, and thiophene compounds for use in the treatment of atrophic vaginitis” (Avoscience, LLC, priority 2016, dated 2023)

Test system: female subjects diagnosed with vaginal atrophy
Assay: Double blind placebo control study: tissue morphometry by vaginal biopsy after topical Formula I(n) capsules
Format: in vivo, human
Text: The histology and morphometry of vaginal atrophy is characterized by a reduction in dermal and epidermal thickness, dermal collagen content (hydroxyproline), the number of cells in the tissue (by DNA content and histology), and dermal and epidermal protein content as well as reduction in overall dermal metabolism as measured by [^14 C]-glucose. These parameters are all increased by the action of topical administration of Formula I(n).
In a double blind placebo control study, a baseline tissue morphometry was determined by biopsy on 20 female subjects diagnosed with vaginal atrophy. Subjects applied a capsule daily containing either Formula I(n) (3%) and avocado oil or simply a capsule of avocado oil alone.

[1] = biopsy after 60 days, daily capsule 3% in avocado oil
[2] = biopsy after 60 days, daily capsule 3% in avocado oil, over control

CCCCC/C=C\C/C=C\CCCCCCCc1ccco1 [Formula I(n), 2-(8Z,11Z-heptadecadienyl)furan]
increase in dermal thickness (biopsy after 60 days vs baseline, daily capsule 3% in avocado oil, control vehicle 7%): 53%
increase in epidermal thickness (biopsy after 60 days vs baseline, daily capsule 3% in avocado oil, control vehicle 9%): 76%
Dermal fibroblast population (cross section) increase [1]: 231%
Dermal fibroblast population (number) increase [1]: 127%
increase in aerobic glucose utilization or metabolism [1]: 413%
increase in total thickness (epidermal and dermal combined) [1]: 156%
DNA content increase over control [2]: 68%
Dermal collagen content increase over control [2]: 74%
Protein content increase over control [2]: 122%
inflammatory response (biopsy after 60 days, daily topical capsule, Formula I(n) (3%) and avocado oil): No observable inflammatory response
dermal and epidermal thickness, dermal collagen content, number of cells, dermal and epidermal protein content, overall dermal metabolism (topical administration, summary statement): increased
